Results reported in patent US7994185B2, “Benzene sulfonamide thiazole and oxazole compounds” (Glaxo Smith Kline LLC, priority 2008, dated 2011).
Counter-ions that a name gives are not always drawn. Like-named read-outs stand apart in the source and are kept apart here. Blank lines part the entries; values can stand above or below the compound they belong to.

Molecular target: T1, BRAFV600E full-length (amino acids 2-766) (Homo sapiens, UniProt P15056, V600E)
T1 construct: His6-tagged BRAFV600E full-length (amino acids 2-766); His6; made in house; host or cells: baculovirus expression system (insect cells)
T1 sequence (P15056 2-766 V600E): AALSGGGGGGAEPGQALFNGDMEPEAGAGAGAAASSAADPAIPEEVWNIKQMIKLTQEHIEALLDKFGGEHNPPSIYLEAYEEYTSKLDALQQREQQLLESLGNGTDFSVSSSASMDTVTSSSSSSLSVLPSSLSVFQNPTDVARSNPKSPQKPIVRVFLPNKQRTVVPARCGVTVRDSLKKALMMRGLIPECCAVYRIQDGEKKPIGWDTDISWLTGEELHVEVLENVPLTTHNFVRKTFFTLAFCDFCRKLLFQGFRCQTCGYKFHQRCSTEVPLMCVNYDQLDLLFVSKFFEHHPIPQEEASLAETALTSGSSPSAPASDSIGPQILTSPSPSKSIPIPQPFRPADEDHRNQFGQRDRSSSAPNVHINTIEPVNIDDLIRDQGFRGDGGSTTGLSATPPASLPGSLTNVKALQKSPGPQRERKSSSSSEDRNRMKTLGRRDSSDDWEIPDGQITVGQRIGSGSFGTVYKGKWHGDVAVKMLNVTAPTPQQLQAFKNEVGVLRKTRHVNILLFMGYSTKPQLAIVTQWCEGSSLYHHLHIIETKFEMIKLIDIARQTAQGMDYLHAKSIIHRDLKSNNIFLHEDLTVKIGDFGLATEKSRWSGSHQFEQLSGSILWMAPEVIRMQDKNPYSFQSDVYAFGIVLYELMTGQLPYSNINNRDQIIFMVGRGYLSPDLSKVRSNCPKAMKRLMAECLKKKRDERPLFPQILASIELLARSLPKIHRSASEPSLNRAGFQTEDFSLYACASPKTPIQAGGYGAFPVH
Assay: B-Raf Accelerated MEK ATPase assay (BRAMA)
Format: biochemical
Conditions: categorized
Method: Compounds of the present invention were tested for B-Raf protein serine kinase inhibitory activity in a B-Raf Accelerated MEK ATPase assay (BRAMA). […] The BRAMA assay is a high sensitivity assay which measures an intrinsic MEK-mediated ATP hydrolysis uncoupled from downstream ERK phosphorylation by coupling the formation of ADP to NADH oxidation through the enzymes pyruvate kinase and lactate dehydrogenase. When ADP production is initiated by addition of catalytic amounts of an activated Raf enzyme and non-phosphorylated MEK, one observes robust ADP production concomitant with Raf-mediated phosphorylation of MEK. The method is disclosed in: C. Rominger, M. Schaber, E. May. Assay for B-Raf Activity Based on Intrinsic MEK ATPase Activity.

[1] = B-Raf pIC50, Table 1b, later runs, average pIC50 for the one or more runs
[2] = B-Raf Activity, Table 1a, highest pIC50 for the one or more runs
[3] = Table 1a, highest pIC50 for the one or more runs, read-out: B-Raf Activity
[4] = Table 1b, later runs, average pIC50 for the one or more runs, read-out: B-Raf pIC50 (converted)

SMILES: O=S(=O)(Nc1cccc(-c2nc(C3CCOCC3)sc2-c2ccnc(NCCO)n2)c1F)c1ccoc1 [Example 300, N-{2-fluoro-3-[5-{2-[(2-hydroxyethyl)amino]-4-pyrimidinyl}-2-(tetrahydro-2H-pyran-4-yl)-1,3-thiazol-4-yl]phenyl}-3-furansulfonamide]
IC50 [1]: ≤ 3.16 nM

SMILES: CC(C)(C)c1nc(-c2cccc(NS(=O)(=O)c3c(F)cccc3F)c2F)c(-c2ccnc(NC3CC3)n2)s1 [Example 294, N-{3-[5-[2-(cyclopropylamino)-4-pyrimidinyl]-2-(1,1-dimethylethyl)-1,3-thiazol-4-yl]-2-fluorophenyl}-2,6-difluorobenzenesulfonamide]
IC50 [1]: ≤ 3.16 nM

SMILES: CC(C)c1nc(-c2ccc(F)c(NS(=O)(=O)c3cccc(F)c3)c2)c(-c2ccnc(N)n2)s1 [Example 84, N-{5-[5-(2-Amino-4-pyrimidinyl)-2-(1-methylethyl)-1,3-thiazol-4-yl]-2-fluorophenyl}-3-fluorobenzenesulfonamide]
IC50 [2]: 100 to 1000 nM
IC50 [1]: 31.6 to 1000 nM

SMILES: CC(C)c1nc(-c2ccc(F)c(NS(=O)(=O)c3c(F)cccc3F)c2)c(-c2ccnc(NCCN3CCCC3)n2)s1 [Example 170]
IC50 [3]: > 1000 nM

SMILES: Nc1nccc(-c2scnc2-c2cccc(NS(=O)(=O)c3c(F)cccc3F)c2)n1 [Example 114, N-{3-[5-(2-Amino-4-pyrimidinyl)-1,3-thiazol-4-yl]phenyl}-2,6-difluorobenzenesulfonamide]
IC50 [2]: 100 to 1000 nM
IC50 [1]: 31.6 to 1000 nM

SMILES: CC(C)c1nc(-c2cccc(NS(=O)(=O)c3cccc(F)c3)c2)c(-c2ccnc(NCCCN(C)C)n2)s1 [Example 88, N-{3-[5-(2-{[3-(Dimethylamino)propyl]amino}-4-pyrimidinyl)-2-(1-methylethyl)-1,3-thiazol-4-yl]phenyl}-3-fluorobenzenesulfonamide]
IC50 [2]: < 100 nM
IC50 [4]: 3.16 to 31.6 nM

SMILES: O=S(=O)(Nc1cccc(-c2nc(C3CCOCC3)sc2-c2ccnc(NCCN3CCOCC3)n2)c1F)c1ccoc1 [Example 307, N-{2-fluoro-3-[5-(2-{[2-(4-morpholinyl)ethyl]amino}-4-pyrimidinyl)-2-(tetrahydro-2H-pyran-4-yl)-1,3-thiazol-4-yl]phenyl}-3-furansulfonamide]
IC50 [1]: ≤ 3.16 nM

SMILES: CC(C)c1nc(-c2ccc(F)c(NS(=O)(=O)c3c(F)cccc3F)c2)c(-c2ccnc(NCCCCN(C)C)n2)s1 [Example 173]
IC50 [3]: 100 to 1000 nM

SMILES: CC(C)(C(N)=O)c1nc(-c2cccc(NS(=O)(=O)c3c(F)cccc3F)c2F)c(-c2ccnc(N)n2)s1 [Example 309, 2-[5-(2-Amino-4-pyrimidinyl)-4-(3-{[(2,6-difluorophenyl)sulfonyl]amino}-2-fluorophenyl)-1,3-thiazol-2-yl]-2-methylpropanamide]
IC50 [1]: ≤ 3.16 nM

IC50 [4]: 3.16 to 31.6 nM
SMILES: CCc1nc(-c2cccc(NS(=O)(=O)c3c(F)cccc3F)c2F)c(-c2ccnc(N)n2)s1 [Example 257, N-{3-[5-(2-amino-4-pyrimidinyl)-2-ethyl-1,3-thiazol-4-yl]-2-fluorophenyl}-2,6-difluorobenzenesulfonamide]

SMILES: CC(C)(C)c1nc(-c2cccc(NS(=O)(=O)c3ccco3)c2F)c(-c2ccnc(N)n2)o1 [Example 298, N-{3-[5-(2-amino-4-pyrimidinyl)-2-(1,1-dimethylethyl)-1,3-oxazol-4-yl]-2-fluorophenyl}-2-furansulfonamide]
IC50 [1]: ≤ 3.16 nM

IC50 [4]: 3.16 to 31.6 nM
SMILES: Cc1nccc(-c2sc(C3CCNCC3)nc2-c2cccc(NS(=O)(=O)c3ccoc3)c2F)n1 [Example 323, N-{2-fluoro-3-[5-(2-methyl-4-pyrimidinyl)-2-(4-piperidinyl)-1,3-thiazol-4-yl]phenyl}-3-furansulfonamide]

SMILES: Cn1ccc(S(=O)(=O)Nc2cccc(-c3nc(C4CCOCC4)sc3-c3ccnc(N)n3)c2F)n1 [Example 289, N-{3-[5-(2-amino-4-pyrimidinyl)-2-(tetrahydro-2H-pyran-4-yl)-1,3-thiazol-4-yl]-2-fluorophenyl}-1-methyl-1H-pyrazole-3-sulfonamide hydrochloride]
IC50 [1]: 31.6 to 1000 nM

SMILES: CC(C)(C)c1nc(-c2cccc(NS(=O)(=O)c3ccoc3)c2F)c(-c2ccnc(N)n2)o1 [Example 299, N-{3-[5-(2-amino-4-pyrimidinyl)-2-(1,1-dimethylethyl)-1,3-oxazol-4-yl]-2-fluorophenyl}-3-furansulfonamide]
IC50 [1]: ≤ 3.16 nM

SMILES: CC(C)c1nc(-c2cccc(NS(=O)(=O)c3cccc(F)c3)c2)c(-c2ccnc(NC3CC3)n2)s1 [Example 89, N-{3-[5-[2-(Cyclopropylamino)-4-pyrimidinyl]-2-(1-methylethyl)-1,3-thiazol-4-yl]phenyl}-3-fluorobenzenesulfonamide]
IC50 [2]: < 100 nM
IC50 [1]: 31.6 to 1000 nM

SMILES: CC(C)(C)c1nc(-c2cccc(NS(=O)(=O)c3c(F)cccc3F)c2F)c(-c2ccnc(NCCC#N)n2)s1 [Example 292, N-{3-[5-{2-[(2-cyanoethyl)amino]-4-pyrimidinyl}-2-(1,1-dimethylethyl)-1,3-thiazol-4-yl]-2-fluorophenyl}-2,6-difluorobenzenesulfonamide]
IC50 [1]: ≤ 3.16 nM

SMILES: CC(C)(C)c1nc(-c2cccc(NS(=O)(=O)c3c(F)cccc3F)c2F)c(-c2ccnc(N)n2)o1 [Example 296, N-{3-[5-(2-amino-4-pyrimidinyl)-2-(1,1-dimethylethyl)-1,3-oxazol-4-yl]-2-fluorophenyl}-2,6-difluorobenzenesulfonamide]
IC50 [1]: ≤ 3.16 nM

SMILES: CC1(c2nc(-c3cccc(NS(=O)(=O)c4ccoc4)c3F)c(-c3ccnc(N)n3)s2)CCNCC1 [Example 319, N-{3-[5-(2-amino-4-pyrimidinyl)-2-(4-methyl-4-piperidinyl)-1,3-thiazol-4-yl]-2-fluorophenyl}-3-furansulfonamide]
IC50 [1]: ≤ 3.16 nM

IC50 [4]: 3.16 to 31.6 nM
SMILES: CC(C)C(=O)NCc1nccc(-c2sc(N3CCOCC3)nc2-c2cccc(NS(=O)(=O)c3cc(F)ccc3F)c2F)n1 [Example 275, N-({4-[4-(3-{[(2,5-difluorophenyl)sulfonyl]amino}-2-fluorophenyl)-2-(4-morpholinyl)-1,3-thiazol-5-yl]-2-pyrimidinyl}methyl)-2-methylpropanamide]

SMILES: CC(C)(C)c1nc(-c2cccc(NS(=O)(=O)c3c(F)cccc3F)c2F)c(-c2ccnc(NCCO)n2)s1 [Example 293, N-[3-(2-(1,1-dimethylethyl)-5-{2-[(2-hydroxyethyl)amino]-4-pyrimidinyl}-1,3-thiazol-4-yl)-2-fluorophenyl]-2,6-difluorobenzenesulfonamide]
IC50 [1]: ≤ 3.16 nM

SMILES: CC(C)(C)c1nc(-c2cccc(NS(=O)(=O)c3ccco3)c2Cl)c(-c2ccncn2)s1 [Example 261, N-{2-chloro-3-[2-(1,1-dimethylethyl)-5-(4-pyrimidinyl)-1,3-thiazol-4-yl]phenyl}-2-furansulfonamide]
IC50 [1]: ≤ 3.16 nM

SMILES: CS(=O)(=O)NCc1nccc(-c2sc(N3CCOCC3)nc2-c2cccc(NS(=O)(=O)c3cc(F)ccc3F)c2F)n1 [Example 273, 2,5-difluoro-N-{2-fluoro-3-[5-(2-{[(methylsulfonyl)amino]methyl}-4-pyrimidinyl)-2-(4-morpholinyl)-1,3-thiazol-4-yl]phenyl}benzenesulfonamide]
IC50 [1]: ≤ 3.16 nM

SMILES: CC(C)c1nc(-c2cccc(NS(=O)(=O)c3c(F)cccc3F)c2)c(-c2ccnc(N)n2)s1 [Example 90, N-{3-[5-(2-Amino-4-pyrimidinyl)-2-(1-methylethyl)-1,3-thiazol-4-yl]phenyl}-2,6-difluorobenzenesulfonamide]
IC50 [2]: < 100 nM
IC50 [1]: 31.6 to 1000 nM

SMILES: COCCCNc1nccc(-c2sc(C(C)C)nc2-c2ccc(F)c(NS(=O)(=O)c3c(F)cccc3F)c2)n1 [Example 174]
IC50 [3]: 100 to 1000 nM

SMILES: CC(C)(C)c1nc(-c2c(F)ccc(NS(=O)(=O)c3cc(F)ccc3F)c2F)c(-c2ccncn2)s1 [Example 260, N-{3-[2-(1,1-dimethylethyl)-5-(4-pyrimidinyl)-1,3-thiazol-4-yl]-2,4-difluorophenyl}-2,5-difluorobenzenesulfonamide]
IC50 [1]: ≤ 3.16 nM

SMILES: CC(C)c1nc(-c2cccc(NS(=O)(=O)c3c(F)cccc3F)c2)c(-c2ccnc(NCCS(C)(=O)=O)n2)s1 [Example 1, 2,6-Difluoro-N-{3-[2-(1-methylethyl)-5-(2-{[2-(methylsulfonyl)ethyl]amino}-4-pyrimidinyl)-1,3-thiazol-4-yl]phenyl}benzenesulfonamide]
IC50 [2]: < 100 nM
IC50 [1]: ≤ 3.16 nM

IC50 [4]: 3.16 to 31.6 nM
SMILES: Cc1nccc(-c2sc(C(C)(C)CO)nc2-c2cccc(NS(=O)(=O)c3c(F)cccc3F)c2F)n1 [Example 316, 2,6-difluoro-N-{2-fluoro-3-[2-(2-hydroxy-1,1-dimethylethyl)-5-(2-methyl-4-pyrimidinyl)-1,3-thiazol-4-yl]phenyl}benzenesulfonamide]

IC50 [4]: 3.16 to 31.6 nM
SMILES: C=Cc1nccc(-c2sc(N3CCOCC3)nc2-c2cccc(NS(=O)(=O)c3cc(F)ccc3F)c2F)n1 [Example 277, N-{3-[5-(2-ethenyl-4-pyrimidinyl)-2-(4-morpholinyl)-1,3-thiazol-4-yl]-2-fluorophenyl}-2,5-difluorobenzenesulfonamide]

SMILES: Cc1nccc(-c2sc(C(C)(C)N)nc2-c2cccc(NS(=O)(=O)c3c(F)cccc3F)c2F)n1 [Example 310, N-{3-[2-(1-amino-1-methylethyl)-5-(2-methyl-4-pyrimidinyl)-1,3-thiazol-4-yl]-2-fluorophenyl}-2,6-difluorobenzenesulfonamide]
IC50 [1]: 31.6 to 1000 nM
